Values quoted from earlier work as cited in US20070264672A1, “DEVELOPMENT OF A NOVEL ASSAY FOR MGMT (METHYL GUANINE METHYL TRANSFERASE)” (priority 2006, published 2007).

What was measured:
MGMT = target: T1, MGMT (Homo sapiens, UniProt P16455); conditions: human carcinoma HT-29 cell line, after exposure to the agent
T1 construct: endogenous in cells; host or cells: HT-29 (human carcinoma cell line)
T1 sequence (P16455 1-207): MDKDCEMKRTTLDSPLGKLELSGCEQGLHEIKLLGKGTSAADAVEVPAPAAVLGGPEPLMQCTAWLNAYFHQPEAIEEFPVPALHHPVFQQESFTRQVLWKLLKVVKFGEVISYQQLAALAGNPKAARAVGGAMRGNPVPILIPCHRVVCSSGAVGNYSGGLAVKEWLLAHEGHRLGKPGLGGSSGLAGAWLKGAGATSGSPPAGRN

[1] = test system: human carcinoma HT-29 cell line; conditions: combined with BCNU

Compound | duration of inhibition of MGMT activity (MGMT) [h] | potentiation of BCNU-induced cytotoxicity over that observed with BCNU alone [1] | effect on chemotherapy-induced cytotoxicity after depletion of MGMT (glioma cell lines)
Nc1nc(OCc2ccccc2)c2nc[nH]c2n1 [O^6—BG, O^6 benzylguanine] | 48 | three logs | enhanced
CN(N=O)C(=O)N[C@H]1C(O)O[C@H](CO)[C@@H](O)[C@@H]1O (mixture of isomers) [streptozotocin] | 48 |  | 
